Measurements reported in paper PMC10220492, “Investigating the mechanism of photoisomerization in jellyfish rhodopsin with the counterion at an atypical position” (The Journal of Biological Chemistry, 2023).

Target: T1, JelRh (box jellyfish rhodopsin) (Carybdea rastonii, UniProt B6F0Y5)
T1 construct: gene cubop; opsin gene in pFastBac HT vector with C-terminal rho 1D4 tag (TETSQVAPA), Sf9 baculovirus expression, DDM-solubilized, 1D4-purified, wild type reconstituted in PC liposomes
T1 sequence (B6F0Y5 1-330): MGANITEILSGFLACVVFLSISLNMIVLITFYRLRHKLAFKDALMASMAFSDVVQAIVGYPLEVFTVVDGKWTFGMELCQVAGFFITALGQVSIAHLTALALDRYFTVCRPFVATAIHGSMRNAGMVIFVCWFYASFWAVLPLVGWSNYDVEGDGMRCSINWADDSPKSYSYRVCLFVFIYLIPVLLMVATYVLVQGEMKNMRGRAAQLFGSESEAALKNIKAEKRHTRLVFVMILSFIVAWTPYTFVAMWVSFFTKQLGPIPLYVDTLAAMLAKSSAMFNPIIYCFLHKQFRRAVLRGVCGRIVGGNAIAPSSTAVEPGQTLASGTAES
Assay: low-temperature UV-visible and FTIR difference spectroscopy of reconstituted pigment
Type: binding
Conditions: 77 K

CC1=C(/C=C/C(C)=C/C=C/C(C)=C/C=O)C(C)(C)CCC1 [all-trans-retinal]
low-temperature UV-visible and FTIR difference spectroscopy of reconstituted pig (covalent (Schiff base), all-trans bound Batho intermediate made in situ by 500 nm illumination): the isomerization from 11-cis to all-trans retinal in JelRh is similar to that of BovRh

CC1=C(/C=C/C(C)=C\C=C\C(C)=C\C=O)C(C)(C)CCC1 [9-cis-retinal]
low-temperature UV-visible and FTIR difference spectroscopy of reconstituted pig (covalent (protonated Schiff base), 9-cis bound form (Iso-JelRh) made in situ by >520 nm illumination of Batho): confirming the formation of the 9-cis bound form (so-called Iso-rhodopsin or Iso)

CC1=C(/C=C/C(C)=C/C=C\C(C)=C\C=O)C(C)(C)CCC1 [11-cis-retinal]
low-temperature UV-visible and FTIR difference spectroscopy of reconstituted pig (covalent (protonated Schiff base), PC liposomes, hydrated film, 11-cis-retinal added at 30 uM to membranes): The sample after membrane preparation was reconstituted with 11-cis-retinal overnight
